What was measured:
Assay type in all cases: in vivo
[1] = system: cocklebur (common cocklebur, Xanthium strumarium); test: Test C pre-/postemergence: cocklebur
Description: (§1) Seeds of plant species selected from blackgrass (Alopecurus myosuroides), bromegrass, downy (downy bromegrass, Bromus tectorum), foxtail, green (green foxtail, Setaria viridis), ryegrass, Italian (Italian ryegrass, Lolium multiflorum), winter wheat (Triticum aestivum), wild oat (Avena fatua), galium (catchweed bedstraw, Galium aparine), bermudagrass (Cynodon dactylon), surinam grass (Brachiaria decumbens), cocklebur (common cocklebur, Xanthium strumarium), corn (Zea mays), large crabgrass (Digitaria sanguinalis), woolly cupgrass (Eriochloa villosa), foxtail, giant (giant foxtail, Setaria faberii), goosegrass (Eleusine indica), johnsongrass (Sorghum halepense), kochia (Kochia scoparia), lambsquarters (Chenopodium album), morningglory (Ipomoea coccinea), nightshade (eastern black nightshade, Solanum ptycanthum), nutsedge, yellow (yellow nutsedge, Cyperus esculentus), pigweed (Amaranthus retroflexus), ragweed (common ragweed, Ambrosia elation), soybean (Glycine max), common (oilseed) sunflower (Helianthus annuus), Russian thistle (Salsola kali) and velvetleaf (Abutilon theophrasti) were planted into a blend of loam soil and sand and treated preemergence with test chemicals formulated in a non-phytotoxic solvent mixture which included a surfactant.
(§2) At the same time, plants selected from these crop and weed species and also barley (winter barley, Hordeum vulgare), canarygrass (Phalaris minor), chickweed (common chickweed, Stellaria media) windgrass (Apera spica-venti) and deadnettle (henbit deadnettle, Lamium amplexicaule) were planted in pots containing Redi-Earth® planting medium (Scotts Company, 14111 Scottslawn Road, Marysville, Ohio 43041) comprising spaghnum peat moss, vermiculite, wetting agent and starter nutrients and treated with postemergence applications of test chemicals formulated in the same manner. Plants ranged in height from 2 to 18 cm (1- to 4-leaf stage) for postemergence treatments.
(§3) Treated plants and controls were maintained in a greenhouse for 13 to 15 days, after which time all species were compared to controls and visually evaluated. Plant response ratings, summarized in Table C, are based on a scale of 0 to 100 where 0 is no effect and 100 is complete control. A dash (-) response means no test result.

kochia (Kochia scoparia) = test: Test D pre-/postemergence: kochia
Description: (§4) Seeds of plant species selected from bluegrass (annual bluegrass, Poa annua), blackgrass (Alopecurus myosuroides), canarygrass (Phalaris minor), chickweed (common chickweed, Stellaria media), galium (catchweed bedstraw, Galium aparine), bromegrass, downy (downy bromegrass, Bromus tectorum), field poppy (Papaver rhoeas), field violet (Viola arvensis), foxtail, green (green foxtail, Setaria viridis), deadnettle (henbit deadnettle, Lamium amplexicaule), ryegrass, Italian (Italian ryegrass, Lolium multiflorum), kochia (Kochia scoparia), lambsquarters (Chenopodium album), oilseed rape (Brassica napus), pigweed (Amaranthus retroflexus), Russian thistle (Salsola iberica), chamomile (scentless chamomile, Matricaria inodora), speedwell (bird's-eye speedwell, Veronica persica), barley, spring (spring barley, Hordeum vulgare), wheat, spring (spring wheat, Triticum aestivum), buckwheat, wild (wild buckwheat, Polygonum convolvulus), mustard, wild (wild mustard, Sinapis arvensis), oat, wild (wild oat, Avena fatua), radish, wild (wild radish, Raphanus raphanistrum), windgrass (Apera spica-venti), barley, winter (winter barley, Hordeum vulgare), and wheat, winter (winter wheat, Triticum aestivum) were planted into a silt loam soil and treated preemergence with test chemicals formulated in a non-phytotoxic solvent mixture which included a surfactant. At the same time, these same crop and weed species were planted in pots containing the planting medium comprising spaghnum peat moss, vermiculite, wetting agent and starter nutrients and treated with postemergence applications of the test chemicals formulated in the same manner. Plants ranged in height from 2 to 18 cm (1- to 4-leaf stage).
as §3, with “controlled growth environment” for “greenhouse”, “14” for “13”, “21 days” for “15 days,”, “D,” for “C,”

[2] = system: barley (winter barley, Hordeum vulgare); test: Test C postemergence: barley
Description: as §2, §3

[3] = system: woolly cupgrass (Eriochloa villosa); test: Test C pre-/postemergence: woolly cupgrass
Description: as §1, §2, §3

[4] = system: field violet (Viola arvensis); test: Test D pre-/postemergence: field violet
Description: as §4
as §3, with “controlled growth environment” for “greenhouse”, “14” for “13”, “21 days” for “15 days,”, “D,” for “C,”

[5] = system: deadnettle (henbit deadnettle, Lamium amplexicaule); test: Test D pre-/postemergence: deadnettle
Description: as §4
as §3, with “controlled growth environment” for “greenhouse”, “14” for “13”, “21 days” for “15 days,”, “D,” for “C,”

[6] = system: oilseed rape (Brassica napus); test: Test D pre-/postemergence: oilseed rape
Description: as §4
as §3, with “controlled growth environment” for “greenhouse”, “14” for “13”, “21 days” for “15 days,”, “D,” for “C,”

rice (Oryza sativa) = test: Test B flooded paddy: rice; conditions: Flood; 250 g ai/ha; applied to paddy water at 2-leaf stage; visually evaluated after 13 to 15 days
How it was run: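 2-leaf plants; pots flooded 3 cm over soil; compound added to paddy water, depth kept constant. Greenhouse 13–15 d. Visual rating vs controls, 0–100 scale (100 = complete control); dash = no result.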

[7] = system: common (oilseed) sunflower (Helianthus annuus); test: Test C pre-/postemergence: sunflower; conditions: Preemergence
Description: as §1, §2, §3

[8] = Postemergence, 31 g ai/ha, scale 0 to 100 (0 no effect, 100 complete control)
[9] = Postemergence, 62 g ai/ha, scale 0 to 100 (0 no effect, 100 complete control)
[10] = Postemergence, 125 g ai/ha, scale 0 to 100, 0 no effect, 100 complete control
[11] = Postemergence, 250 g ai/ha, scale 0 to 100
[12] = Postemergence, 250 g ai/ha, scale 0 to 100 (0 no effect, 100 complete control)
[13] = Postemergence, 16 g ai/ha, scale 0 to 100
[14] = Preemergence, 16 g ai/ha, scale 0 to 100 (0 no effect, 100 complete control)
[15] = Preemergence, 31 g ai/ha, scale 0 to 100 (0 no effect, 100 complete control)
[16] = Preemergence, 62 g ai/ha, scale 0 to 100
[17] = Preemergence, 125 g ai/ha, scale 0 to 100
[18] = Preemergence, 250 g ai/ha, scale 0 to 100
[19] = 62 g ai/ha, scale 0 to 100 (0 no effect, 100 complete control)
[20] = 125 g ai/ha, scale 0 to 100, 0 no effect, 100 complete control
[21] = Preemergence, 31 g ai/ha, scale of 0 to 100, 0 is no effect, 100 is complete control

Compound: Cc1nn(-c2ccc(F)cc2)nc1Cc1ccnc(C(F)(F)F)c1 [Compound 16, 4-[[2-(4-fluorophenyl)-5-methyl-2H-1,2,3-triazol-4-yl]methyl]-2-(trifluoromethyl)pyridine]
- Plant response rating, Cocklebur [1, 8]: 35
- Plant response rating, Cocklebur [1, 9]: 45
- Plant response rating, Cocklebur [1, 10]: 45
- Plant response rating, Cocklebur [1, 11]: 45
- Plant response rating: Kochia (kochia (Kochia scoparia); [8]): 90
- Plant response rating: Kochia (kochia (Kochia scoparia); [9]): 95
- Plant response rating: Kochia (kochia (Kochia scoparia); [10]): 75
- Plant response rating: Kochia (kochia (Kochia scoparia); [12]): 95
- Plant response rating, Kochia (kochia (Kochia scoparia); [13]): 85
- Plant response rating, Kochia (kochia (Kochia scoparia); [14]): 30
- Plant response rating, Kochia (kochia (Kochia scoparia); [15]): 30
- Plant response rating, Kochia (kochia (Kochia scoparia); [16]): 90
- Plant response rating, Kochia (kochia (Kochia scoparia); [17]): 90
- Plant response rating, Kochia (kochia (Kochia scoparia); [18]): 100
- Plant response rating, Barley [2, 19]: 35
- Plant response rating, Barley [2, 20]: 45
- Plant response rating, Barley ([2]; 250 g ai/ha, scale 0 to 100): 45
- Plant response rating, Cupgrass, Woolly [3, 8]: 5
- Plant response rating, Cupgrass, Woolly [3, 9]: 20
- Plant response rating, Cupgrass, Woolly [3, 10]: 65
- Plant response rating, Cupgrass, Woolly [3, 11]: 75
- Plant response rating: Field Violet [4, 8]: 20
- Plant response rating: Field Violet [4, 9]: 30
- Plant response rating: Field Violet [4, 10]: 70
- Plant response rating: Field Violet [4, 12]: 80
- Plant response rating, Field Violet [4, 13]: 0
- Plant response rating, Field Violet [4, 14]: 0
- Plant response rating, Field Violet [4, 15]: 30
- Plant response rating, Field Violet [4, 16]: 80
- Plant response rating, Field Violet [4, 17]: 90
- Plant response rating, Field Violet [4, 18]: 100
- Plant response rating: Deadnettle [5, 8]: 25
- Plant response rating: Deadnettle [5, 9]: 45
- Plant response rating: Deadnettle [5, 10]: 50
- Plant response rating: Deadnettle [5, 12]: 90
- Plant response rating, Deadnettle [5, 13]: 10
- Plant response rating, Deadnettle [5, 14]: 0
- Plant response rating, Deadnettle [5, 15]: 40
- Plant response rating, Deadnettle [5, 16]: 60
- Plant response rating, Deadnettle [5, 17]: 100
- Plant response rating, Deadnettle [5, 18]: 100
- Plant response rating: Oilseed Rape [6, 8]: 70
- Plant response rating: Oilseed Rape [6, 9]: 95
- Plant response rating: Oilseed Rape [6, 10]: 100
- Plant response rating: Oilseed Rape [6, 12]: 100
- Plant response rating, Oilseed Rape [6, 13]: 40
- Plant response rating, Oilseed Rape [6, 14]: 0
- Plant response rating, Oilseed Rape [6, 15]: 0
- Plant response rating, Oilseed Rape [6, 16]: 50
- Plant response rating, Oilseed Rape [6, 17]: 50
- Plant response rating, Oilseed Rape [6, 18]: 100

Compound: Cc1nn(-c2ccnc(C(F)(F)F)c2)nc1Cc1ccnc(C(F)(F)F)c1 [Compound 137]
- Plant response rating, Rice (0 to 100 scale, 0 is no effect, 100 is complete control) (rice (Oryza sativa)): 40
- Plant response rating, Cocklebur [1, 8]: 45
- Plant response rating, Cocklebur [1, 9]: 50
- Plant response rating, Cocklebur [1, 11]: 60
- Plant response rating: Kochia (kochia (Kochia scoparia); [8]): 85
- Plant response rating: Kochia (kochia (Kochia scoparia); [9]): 90
- Plant response rating: Kochia (kochia (Kochia scoparia); [10]): 95
- Plant response rating: Kochia (kochia (Kochia scoparia); [12]): 100
- Plant response rating, Kochia (kochia (Kochia scoparia); [13]): 75
- Plant response rating, Barley ([2]; 31 g ai/ha, scale 0 to 100 (0 no effect, 100 complete control)): 10
- Plant response rating, Barley [2, 19]: 10
- Plant response rating, Barley [2, 20]: 30
- Plant response rating, Barley ([2]; 250 g ai/ha, scale 0 to 100): 35
- Plant response rating, Cupgrass, Woolly [3, 8]: 45
- Plant response rating, Cupgrass, Woolly [3, 9]: 50
- Plant response rating, Cupgrass, Woolly [3, 10]: 55
- Plant response rating, Cupgrass, Woolly [3, 11]: 90
- Plant response rating: Field Violet [4, 8]: 70
- Plant response rating: Field Violet [4, 9]: 85
- Plant response rating: Field Violet [4, 10]: 90
- Plant response rating: Field Violet [4, 12]: 95
- Plant response rating, Field Violet [4, 13]: 50
- Plant response rating: Deadnettle [5, 8]: 40
- Plant response rating: Deadnettle [5, 9]: 70
- Plant response rating: Deadnettle [5, 10]: 80
- Plant response rating: Deadnettle [5, 12]: 85
- Plant response rating, Deadnettle [5, 13]: 20
- Plant response rating: Oilseed Rape [6, 8]: 90
- Plant response rating: Oilseed Rape [6, 9]: 98
- Plant response rating: Oilseed Rape [6, 10]: 100
- Plant response rating: Oilseed Rape [6, 12]: 100
- Plant response rating, Oilseed Rape [6, 13]: 70

Compound: Cc1nn(-c2ccc(F)c(C(F)(F)F)c2)nc1Oc1ccnc(C(F)(F)F)c1 [Compound 147]
- Plant response rating, Rice (0 to 100 scale, 0 is no effect, 100 is complete control) (rice (Oryza sativa)): 50
- Plant response rating, Cocklebur [1, 21]: 35
- Plant response rating: Kochia (kochia (Kochia scoparia); [8]): 85
- Plant response rating: Kochia (kochia (Kochia scoparia); [9]): 90
- Plant response rating: Kochia (kochia (Kochia scoparia); [10]): 95
- Plant response rating, Kochia (kochia (Kochia scoparia); [13]): 70
- Plant response rating, Kochia (kochia (Kochia scoparia); [14]): 15
- Plant response rating, Kochia (kochia (Kochia scoparia); [15]): 15
- Plant response rating, Kochia (kochia (Kochia scoparia); [16]): 50
- Plant response rating, Kochia (kochia (Kochia scoparia); [17]): 70
- Plant response rating, Sunflower ([7]; 31 g ai/ha, scale of 0 to 100, 0 is no effect, 100 is complete control): 15
- Plant response rating, Sunflower ([7]; 62 g ai/ha, scale of 0 to 100, 0 is no effect, 100 is complete control): 15
- Plant response rating, Sunflower [7, 20]: 15
- Plant response rating, Sunflower ([7]; 250 g ai/ha, scale 0 to 100, 0 no effect, 100 complete control): 25
- Plant response rating, Cupgrass, Woolly [3, 21]: 50
- Plant response rating, Cupgrass, Woolly ([3]; Preemergence, 62 g ai/ha, scale of 0 to 100, 0 is no effect, 100 is complete control): 55
- Plant response rating, Cupgrass, Woolly ([3]; Preemergence, 125 g ai/ha, scale 0 to 100, 0 no effect, 100 complete control): 95
- Plant response rating, Cupgrass, Woolly ([3]; Preemergence, 250 g ai/ha, scale 0 to 100, 0 no effect, 100 complete control): 98
- Plant response rating: Field Violet [4, 8]: 95
- Plant response rating: Field Violet [4, 9]: 100
- Plant response rating: Field Violet [4, 10]: 90
- Plant response rating, Field Violet [4, 13]: 95
- Plant response rating, Field Violet [4, 14]: 75
- Plant response rating, Field Violet [4, 15]: 100
- Plant response rating, Field Violet [4, 16]: 95
- Plant response rating, Field Violet [4, 17]: 100
- Plant response rating: Deadnettle [5, 8]: 95
- Plant response rating: Deadnettle [5, 9]: 90
- Plant response rating: Deadnettle [5, 10]: 100
- Plant response rating, Deadnettle [5, 13]: 65
- Plant response rating, Deadnettle [5, 14]: 5
- Plant response rating, Deadnettle [5, 15]: 10
- Plant response rating, Deadnettle [5, 16]: 100
- Plant response rating, Deadnettle [5, 17]: 100
- Plant response rating: Oilseed Rape [6, 8]: 60
- Plant response rating: Oilseed Rape [6, 9]: 95
- Plant response rating: Oilseed Rape [6, 10]: 100
- Plant response rating, Oilseed Rape [6, 13]: 25
- Plant response rating, Oilseed Rape [6, 14]: 0
- Plant response rating, Oilseed Rape [6, 15]: 0
- Plant response rating, Oilseed Rape [6, 16]: 5
- Plant response rating, Oilseed Rape [6, 17]: 15

— patent US9302999B2, “Substituted triazoles as herbicides” (E. I. DU PONT DE NEMOURS AND COMPANY, priority 2012, dated 2016)
